Here are results for two compounds from patent EP0599152A1, “Triazinones and Triazinophthalazinones possessing antiasthmatic/antiallergic, positive inotropic and antihypertensive activities” (ASTA Medica Aktiengesellschaft, priority 1992, dated 1994).

In one test the target is T1, LTD-4-Rezeptor (Homo sapiens, UniProt Q9Y271).
T1 sequence (Q9Y271 1-337): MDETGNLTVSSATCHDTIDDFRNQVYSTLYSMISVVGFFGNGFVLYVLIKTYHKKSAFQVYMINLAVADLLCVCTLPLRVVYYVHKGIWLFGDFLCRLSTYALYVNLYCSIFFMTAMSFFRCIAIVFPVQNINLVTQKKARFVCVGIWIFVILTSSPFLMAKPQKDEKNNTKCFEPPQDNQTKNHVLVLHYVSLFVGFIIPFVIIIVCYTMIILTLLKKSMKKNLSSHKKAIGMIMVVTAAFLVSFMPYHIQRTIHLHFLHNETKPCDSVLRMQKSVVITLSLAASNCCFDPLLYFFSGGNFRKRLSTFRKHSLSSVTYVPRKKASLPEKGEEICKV
The test can be described thus: inhibition of LTD-4 receptor binding (Borbe and Zierenberg). As to conditions: read-out: Hemmung von 50 % der Aktivität bei einer Konzentration von. How it is done:
(§1) Die Verbindung gemäß Beispiel 16 zeigt im Versuch der Hemmung der Spätphaseneosinophile in Meerschweinchen gemäß der Vorschrift von Cartwright, Diagnostic Laboratory Hematology, 1968, S. 48 und Mac Fortare et al, Eosinophil Counting, Brit. Med. 9., 2, 1187 (1951) in der Dosis von 30 mg pro Kilogramm Körpergewicht, gegeben p.o., einen Hemmwert von 80 %. Bei der Hemmung der LTD-4-Rezeptor-Bindung gemäß Borbe und Zierenberg, Pharmacopsychiatry 18, 314 319 (1985) ergab sich eine Hemmung von 50 % der Aktivität bei einer Konzentration von 7,4 µmol/l.

The test system of a further test is Spätphaseneosinophile. Nature of the test: inhibition of late-phase eosinophils in guinea pigs (Cartwright; eosinophil counting). The test is classed as in vivo, Meerschweinchen. As to conditions: 30 mg pro Kilogramm Körpergewicht, p.o. As to the method: as §1
The subject of test [1] is Histamin-Freisetzung aus Mastzellen. The test can be described thus: allergically induced histamine release (sensitised rats, method of Shore et al.). The test is classed as cell-based, Ratten. As to conditions: Mast cell, concentration 10 µmol/l, read-out: Hemmung der Freisetzung. The text has this:
Die pharmakologische Testung auf Wirksamkeit bei der allergisch induzierten Histaminfreisetzung an sensibilisierten Ratten erfolgte gemäß der Versuchsvorschrift von P.A. Shore et al., I. Pharmacol. Exp. Ther., 127 (1959), S. 182.
Die Verbindung gemäß gemaß Beispiel 1 zeigt folgende Werte: Bei der allergisch induzierten Histamin-Freisetzung ergibt ein Konzentration 10 µmol/l eine 25 % - Hemmung der Freisetzung.

With `CN1CC(=O)NN=C1c1ccc(OCc2ccc3ccccc3n2)c(Cl)c1` [Beispiel 16, 3-{3-Chlor-4-[(2-chinolyl)methoxy]phenyl}-4-methyl-4,5-dihydro-1,2,4-triazin-6-on], the IC50 on LTD-4-Rezeptor stood at 7.4 µM. The compound further yielded a Hemmwert in the test on Spätphaseneosinophile of 80%.
Consider `O=C1CN2N=C(c3ccccc3)c3ccccc3C2=NN1` [Beispiel 1, 7-Phenyl-2H-triazino(3,4a)phthalazin-3(4H)-on], for which the inhibition at 10 µM in test [1] was 25%.
